Laboratory results as given in patent US20060002989A1, “Formulations of sumatriptan for absorption across biological membranes, and methods of making and using the same” (priority 2004, published 2006).
Like-named read-outs stand apart in the source and are kept apart here.

System: pig buccal membrane
Assay: Trans-buccal absorption across pig buccal epithelial membrane in side-by-side diffusion cells
Details: for Steady-state flux, Fs: pig, 6 h
Method: In a side-by-side diffusion experiment, there exists a reservoir on each side of the test biological membrane. […] The steady state flux of absorption, Fs, is calculated by the formula, Fs=(dQ/dt)/A=(dC/dt)×(V/A), wherein Q is the amount of drug permeated, C is the concentration of the drug, A is the permeation area, V is the chamber volume in a side-by-side diffusion cell, and t is the time period over which the drug permeation is monitored. Fs can be determined from the slope of the line attained from plotting the cumulative amount of drug permeated per unit area as a function of time.
Freshly prepared buccal tissue from pigs was used to prepare the buccal epithelial membrane. A dermatometer was used to obtain the buccal epithelial membrane by separating it from the underlying connective tissue. The buccal membranes were used within 3-4 hours of removal of buccal tissue from the pigs.
The buccal epithelial membrane was mounted between side-by-side diffusion cells. The exposed area of the buccal membrane was approximately 0.64 cm^2. […] The final volume of the liquid in the donor-side was 3.5 ml and the volume in the receptor-side was 3.5 ml.
The diffusion system was maintained at 37° C. throughout the experiment. At predetermined intervals over a period of 6 hours, 150 μl of the solution from the receptor-side was withdrawn for HPLC analysis. The receptor-side was refilled with the same volume (150 μl) of KRB solution.
HPLC analysis of the solution withdrawn from the receptor-side was performed using a Waters 2695 separation module HPLC system equipped with a reverse phase C18 column (150 mm×3.9 mm ID, 5 μm) (Waters Corp., Milford, Mass.). The mobile phase was 88% phosphate buffer (0.05 M NH4H2PO4/H3PO4, pH 3.3) and 12% acetonitrile. […] The software used for HPLC assay data analysis was Millenium 32 (Waters Corp., Milford, Mass.).
Microsoft Excel 2000 was used to calculate the steady state flux value of the absorption of the drug across the buccal membrane. The steady state flux (Fs)=(dQ/dt)/A=(dC/dt)×(V/A), wherein Q is the amount of drug permeated, C is concentration of the drug, A is the permeation area, V is the chamber volume, and t is the time period over which the drug permeation is monitored.
The receptor-side contained 3.5 ml of KRB solution.

Compound | effect of absorption enhancer on permeation of sumatriptan succinate across the buccal membrane | effect of absorption enhancer on permeation of sumatriptan succinate across the buccal membrane (result in words) | further results
CNS(=O)(=O)Cc1ccc2[nH]cc(CCN(C)C)c2c1 [Base alone, 3-[2-(dimethylamino)ethyl]-N-methyl-indole-5-methanesulphonamide, reference compound] |  |  | effect of absorption enhancers on absorption of sumatriptan base: not significantly enhanced; Steady-state flux, Fs (6.8 mM): 1.6 ± 1.5 ng/cm^2/min
CNS(=O)(=O)Cc1ccc2[nH]cc(CCN(C)C)c2c1.O=C(O)CCC(=O)O [Salt (SS) alone, sumatriptan succinate, reference compound] |  |  | Steady-state flux, Fs (12 mM): 6.0 ± 6.6 ng/cm^2/min
CCCCCCCCCCCC(=O)O [lauric acid] | only minor enhancing effects |  | 
CCCCCCCCCC(=O)[O-].[Na+] [sodium caprate] |  | enhanced the permeation | effect of absorption enhancer on permeation of sumatriptan succinate across the buccal membrane (result in words, listed as Sodium caprate): most dramatic effect
CCCCCCCC(=O)[O-].[Na+] [sodium caprylate] |  | enhanced the permeation | 
C[C@H](CCC(=O)NCC(=O)[O-])[C@H]1CC[C@H]2[C@@H]3[C@H](O)C[C@@H]4C[C@H](O)CC[C@]4(C)[C@H]3C[C@H](O)[C@]12C.[Na+] [sodium glycocholate] | only minor enhancing effects |  | 
CCCCCCCCCCCC(=O)[O-].[Na+] [sodium laurate] |  | enhanced the permeation | 
CCCCCCCCCCCCOS(=O)(=O)[O-].[Na+] [sodium lauryl sulfate (SLS), sodium lauryl sulfate] |  | enhanced the permeation | 
lysolecithin | only minor enhancing effects |  | 
